Data reported in patent publication US9446044B2, “DYRK1 inhibitors and uses thereof” (DIAXONHIT, priority 2011, dated 2016).

Key:
[1] = molecular target: DYRK1A (Homo sapiens (Human), UniProt Q13627); assay: DYRK1A kinase assay (HotSpot, Reaction Biology); type: biochemical; details: purified recombinant kinase, 10 μM ATP, room temperature 120 min
[2] = molecular target: DYRK1B (Homo sapiens (Human), UniProt Q9Y463); assay: DYRK1B kinase assay (HotSpot, Reaction Biology); type: biochemical; details: purified recombinant kinase, 10 μM ATP, room temperature 120 min
Chain of DYRK1B (Q9Y463 whole entry): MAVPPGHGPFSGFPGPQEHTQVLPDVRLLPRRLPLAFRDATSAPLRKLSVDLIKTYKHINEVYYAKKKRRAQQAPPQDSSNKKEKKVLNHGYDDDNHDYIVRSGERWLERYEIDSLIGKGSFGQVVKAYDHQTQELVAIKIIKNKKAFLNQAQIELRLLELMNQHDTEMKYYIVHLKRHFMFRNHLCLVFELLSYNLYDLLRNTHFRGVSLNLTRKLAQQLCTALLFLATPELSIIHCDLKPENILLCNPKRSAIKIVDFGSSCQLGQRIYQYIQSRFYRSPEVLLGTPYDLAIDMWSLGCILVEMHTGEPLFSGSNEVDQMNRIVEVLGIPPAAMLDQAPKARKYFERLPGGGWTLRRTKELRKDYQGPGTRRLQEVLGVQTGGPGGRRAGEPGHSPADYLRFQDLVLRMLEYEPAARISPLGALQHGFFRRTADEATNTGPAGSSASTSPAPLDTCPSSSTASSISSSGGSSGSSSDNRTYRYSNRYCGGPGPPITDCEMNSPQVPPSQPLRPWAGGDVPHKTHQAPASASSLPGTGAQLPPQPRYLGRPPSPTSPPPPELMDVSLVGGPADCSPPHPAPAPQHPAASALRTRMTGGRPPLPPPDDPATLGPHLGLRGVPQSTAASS

Structure (SMILES)	IC50 [1] [nM]	IC50 [2] [nM]
COC(=N)c1nc2ccc3ncnc(Nc4ccc(F)cc4F)c3c2s1 [Compound 78, Methyl 9-(2,4-difluorophenylamino)thiazolo[5,4-f]quinazoline-2-carbimidate]	0.94	1.07
COC(=N)c1nc2ccc3ncnc(Nc4cc(Br)c5c(c4)OCO5)c3c2s1 [Compound 47, Methyl 9-(7-bromobenzo[d][1,3]dioxol-5-ylamino)thiazolo[5,4-f]quinazoline-2-carbimidate]	2.76	3.66
CC(C)(C)CNc1ncnc2ccc(-c3ccc4c(c3)OCO4)cc12 [NCGC-00189310, reference compound]	2.2	20.6
COC(=N)c1nc2ccc3ncnc(Nc4ccc(Cl)cc4Cl)c3c2s1 [Compound 72, Methyl 9-(2,4-dichlorophenylamino)thiazolo[5,4-f]quinazoline-2-carbimidate]	0.22	0.28

The remaining lines, values ahead:

IC50 [1] [nM]	IC50 [2] [nM]	Structure (SMILES)
54.8	186	COC(=N)c1nc2ccc3ncnc(Nc4ccc(N5CCCC5)cc4)c3c2s1 [Compound 77, Methyl 9-(4-(pyrrolidin-1-yl)phenylamino)thiazolo[5,4-f]quinazoline-2-carbimidate]
3.89	7.69	COC(=N)c1nc2ccc3ncnc(Nc4ccc(C#N)cc4)c3c2s1 [Compound 70, Methyl 9-(4-cyanophenylamino)thiazolo[5,4-f]quinazoline-2-carbimidate]
4.91	5.68	COC(=N)c1nc2ccc3ncnc(Nc4ccc(O)c([N+](=O)[O-])c4)c3c2s1 [Compound 60, Methyl 9-(4-hydroxy-3-nitrophenylamino)thiazolo[5,4-f]quinazoline-2-carbimidate]
13.1	19.2	COC(=N)c1nc2ccc3ncnc(Nc4ccc(OC)cc4)c3c2s1 [Compound 45, Methyl 9-(4-methoxyphenylamino)thiazolo[5,4-f]quinazoline-2-carbimidate]
6.06	9.64	COC(=N)c1nc2ccc3ncnc(Nc4ccc(F)cc4)c3c2s1 [Compound 66, Methyl 9-(4-fluorophenylamino)thiazolo[5,4-f]quinazoline-2-carbimidate]
0.98	2.83	COC(=N)c1nc2ccc3ncnc(Nc4ccc(C)cc4)c3c2s1 [Compound 65, Methyl 9-(p-tolylamino)thiazolo[5,4-f]quinazoline-2-carbimidate]
